Test results taken from US20200276150A1, “PARENTERAL FORMULATIONS OF MACROLIDE ANTIBIOTICS” (Tetard, Inc., priority 2010, published 2020).
Converted amounts (≈) assume the structure as drawn. “Also recorded” adds a separate entry of the source.

Tests used:
[1] = QT effects of CEM-101 (statement, no method); conditions: compared to other macrolides and ketolides
[2] = Cardiac tissue levels of CEM-101 (statement, no method); conditions: compared to other macrolides and ketolides
[3] = IV administration to monkeys, observation for pain response (Example 10); assay type: in vivo, Cynomolgus monkeys (Macaca fasicularis); conditions: IV infusion about 90 minutes, 5, 12.5, 25 mg/kg/d
Procedure: EXAMPLE 10. Pharmacokinetics (PK) in monkeys following IV administration. […] The plasma level of CEM-101 and toxicokinetics at 0-24 hours is measured (venipuncture, predose, then immediately following completion of infusion at 0, 0.5, 1, 4, 8, and 24 hours). Animal body weight is also periodically measured. […] Total dose volume is 15 mL/kg, and intravenous infusion is carried out over about 90 minutes (10 mL/kg/h) via disposable indwelling catheter into one of the brachial and/or saphenous veins. Vein or vein location is changed at least every seven days. Control animals receive vehicle alone. An illustrative formulation is CEM-101 in the following vehicle comprising or consisting essentially of L(+)-tartaric acid, D-mannitol, SWFI, 1N HaOH, and optionally 1-thioglycerol, as described herein. Following dosing, a portion of the animals are immediately euthanized for necropsy evaluation. A “recovery” group is observed for an additional 28 days without dosing, then euthanized for necropsy evaluation. It is appreciated that both monkeys and dogs elicit particular sensitivity to pain, and therefore may be observed for pain response upon administration of the test articles.

[4] = IV administration to dogs, observation for pain response (Example 11); assay type: in vivo, Beagle dogs (Canis familiaris); conditions: IV infusion about 90 minutes, 5, 10, 15 mg/kg/d
Procedure: EXAMPLE 11. Pharmacokinetics (PK) in dogs following IV administration. […] The plasma level of CEM-101 and toxicokinetics at 0-24 hours is measured (jugular venipuncture, predose, then immediately following completion of infusion at 0, 0.5, 1, 4, 8, and 24 hours). Animal body weight is also periodically measured. […] Total dose volume is 15 mL/kg, and intravenous infusion is carried out over about 90 minutes (10 mL/kg/h) via disposable indwelling catheter into one of the cephalic and/or saphenous veins. Vein or vein location is changed at least every seven days. Control animals receive vehicle alone. An illustrative formulation is CEM-101 in the following vehicle comprising or consisting essentially of L(+)-tartaric acid, D-mannitol, SWFI, 1N HaOH, and optionally 1-thioglycerol, as described herein. Following dosing, a portion of the animals are immediately euthanized for necropsy evaluation. A “recovery” group is observed for an additional 28 days without dosing, then euthanized for necropsy evaluation. It is appreciated that both monkeys and dogs elicit particular sensitivity to pain, and therefore may be observed for pain response upon administration of the test articles.

[5] = tested on: azithromycin-resistant strains; experiment: Antibacterial activity compared with azithromycin (statement, no method); assay type: cell-based
[6] = Saturated solubility of CEM-101 in a range of vehicles (Example 5); assay type: physicochemical; conditions: for solubility at 72 h: thermodynamic from solid, mixed 72 hours, HPLC
Procedure: EXAMPLE 5. Solubility of CEM-101 in a Range of Vehicles. […] Additional CEM-101 is added to vehicles which completely solubilized the CEM-101 API within 24 hours. Samples are allowed to mix for a total of 72 hours. Once mixed, the samples are assessed visually, centrifuged and then diluted to appropriate concentration for analysis by HPLC to determine saturated solubility. Without being bound by theory, it is believed herein that the vehicles are in situ salt forming compounds when mixed with CEM-101. Studies were conducted by weighing approximately 1000 mg of each vehicle into a number of vials. A known amount of CEM-101 was then added into each vial and the resulting mixture was mixed on a vortex prior to mixing overnight on a roller mixer.

[7] = CEM-101 in 60 mM tartaric acid with and without 0.9% NaCl, concentration by HPLC (Examples 3A, 3B); assay type: physicochemical
Procedure: EXAMPLE 3A. […] On addition of NaCl, the resultant solution went clear on mixing for an hour (53.0 mg/mL by HPLC). […] EXAMPLE 3B. Compositions of CEM-101 in an Unbuffered Solution for Parenteral Administration and Studies in 0.9% NaCl solution (˜8% w/v CEM-101). Approximately 90 mg CEM-101 was dissolved in 1 mL 60 mM tartaric acid pH 2.16 and allowed to mix overnight.

[8] = Storage of lyophilized cakes at 5° C., 25° C./60% RH and 40° C./75% RH; assay type: physicochemical; conditions: 7, 13 and 28 days
Procedure: Cakes were stored at 5° C., 25° C./60% RH and 40° C./75% RH. Samples were evaluated at 7, 13 and 28 days.

[9] = Freeze drying, visual observation of the cakes (Example 9); assay type: physicochemical; conditions: for Visual observation of the cake: excipient at its maximum concentration in CEM-101 IV solution, frozen -25° C. 2 h, freeze dried 24 h
Procedure: 1 mL of CEM-101 IV solution was dispensed into in a clear glass vial, followed by the careful addition of small amounts of the excipient under investigation (either 50 or 100 mg). The solution in the vials were mixed using a vortex mixer and sonicated until a clear solution was observed. The final data is shown below, and reflects the maximum possible amount of each excipient used in the freeze dried formulations. Subsequently, all clear vials were frozen at −25° C. for 2 h. The caps were then removed and the vials were covered with a small tissue paper and placed in the freeze drier for 24 h (in the dark). The cakes were then inspected and the following visual observations detailed in the table below were made.
Based on the results above, three excipients with no interaction with the API were selected and solutions containing various ratio combinations of the API and excipient were prepared. These solutions were then frozen at −25° C., then lyophilised for 24 h, in the dark. The resultant cakes were then examined visually to determine the integrity of the plugs.

[10] = Excipient compatibility by HS-MCDSC (Example 8); assay type: physicochemical; conditions: API-excipient binary pair with CEM-101, 1:1 ratio, 30-80° C.
Procedure: EXAMPLE 8. Determination of Compatibility of Excipients for Lyophilized Pharmaceutical Composition. Excipient compatibility is assessed using high sensitivity multi-cell differential scanning calorimetry (HS-MCDSC). The high sensitivity multi-cell differential scanning calorimeter is an analytical instrument designed to measure heat capacity and changes in heat capacity as a function of temperature.
Stability (of an individual component) is usually assessed by loading a sample of the material into a cell and measuring the heat-flow as a function of time. The instrument should rapidly detect any degradation processes occurring, and the absence of any heat responses gives confidence that the system under investigation is stable.
A similar approach can be adopted for testing binary mixtures of the active pharmaceutical ingredient (API) and excipients. […] Any unexpected power change recorded in the drug-excipient mixture indicates a possible interaction between the two components.
Calorimetric data were recorded using a high sensitivity MCDSC (CSC Model 4100 MCDSC, USA). Samples were run using API alone (ca. 50 mg), excipients alone (ca. 50 mg) and API-Excipient binary pairs (ca. 25 mg:25 mg, 1:1 ratio). Samples were weighed directly into the cells which were sealed with the metal caps provided and a rubber sealing disc to ensure an air-tight seal. Experiments were programmed as follows:
The MCDSC consists of four cells contained in a loading chamber. The cells 1, 2 and 3 were filled with samples, while the 4th cell is always left empty and run as a blank. Prior to analysis, cells 1 to 3 were run empty with no samples to record the blank results which were then subtracted from subsequent results obtained from samples analysed. Data were recorded every 10 s using the dedicated software package CpCalc. Data analysis was performed using CpCalc and Microsoft Excel.
The calorimeter records all the events occurring in each of the sample cell. The approach adopted here was to calculate the power-time data obtained for the active and excipients alone. The calculated data is then used to create an ‘expected’ theoretical trace as an average of the signals coming from both API and excipients at a mixture of 1:1 ratio.

[11] = Solubility of each excipient in CEM-101 IV solution (Example 9); assay type: physicochemical; conditions: in 1 mL CEM-101 IV solution (50 mg/mL)
Procedure: EXAMPLE 9. Characterization of properties of excipients for freeze drying to prepare lyophilized pharmaceutical composition. […] The solution in the vials were mixed using a vortex mixer and sonicated until a clear solution was observed. […] The caps were then removed and the vials were covered with a small tissue paper and placed in the freeze drier for 24 h (in the dark).

[12] = HPLC assay and total impurities of formulations (Example 6); assay type: physicochemical
Procedure: Turbid samples were centrifuged prior to analysis. Total Impurities are assessed by % HPLC peak area.

| Compound | Cake colour on storage [8] | Visual observation of lyophilizate ([9]; API:Excipient Ratio 1:1) | Visual observation of lyophilizate ([9]; API:Excipient Ratio 1:2) | Visual observation of lyophilizate ([9]; API:Excipient Ratio 1:3) | Visual observation of lyophilizate ([9]; API:Excipient Ratio 1:4) | Visual observation of the cake [9] | MC-DSC Results (No Interaction/Interaction) [10] | Conc. (mg/mL), maximum possible amount of excipient giving a clear solution [11] | further results |
| --- | --- | --- | --- | --- | --- | --- | --- | --- | --- |
| CC[C@H]1OC(=O)[C@@](C)(F)C(=O)[C@H](C)[C@@H](O[C@@H]2O[C@H](C)C[C@H](N(C)C)[C@H]2O)[C@@](C)(OC)C[C@@H](C)C(=O)[C@H](C)[C@H]2N(CCCCn3cc(-c4cccc(N)c4)nn3)C(=O)O[C@]12C [CEM-101] |  |  |  |  |  |  |  |  | QT effects / QT prolongation [1]: do not cause QT prologation; also recorded: low QT effects or no QT effects; Cardiac tissue levels / accumulation [2]: do not accumulate in cardiac tissue; also recorded: do not exhibit high cardiac tissue levels; Pain response upon IV administration [3]: no reaction by the animal was observed; Pain response upon IV administration [4]: no reaction by the animal was observed; Activity against azithromycin-resistant strains [5]: active; Potency relative to azithromycin ([5]; more potent than azithromycin): 8-16 times; pH of resultant solution ([6]; CEM-101 in 1M Ascorbic Acid (sample 17)): 1.93; pH of resultant solution ([6]; CEM-101 in 1M Methane sulphonic Acid (sample 16)): 0.03; pH of resultant solution ([6]; CEM-101 in 1M Tartaric Acid (sample 19)): 1.27; solubility at 72 h ([6]; pH 0.03, simulated gastric fluid, vehicle 1M Methane sulphonic Acid (sample 16)): 100 mg/mL (≈ 118 mM); solubility at 72 h ([6]; pH 1.27, simulated gastric fluid, vehicle 1M Tartaric Acid (sample 19)): 100 mg/mL (≈ 118 mM); solubility at 72 h ([6]; pH 1.93, simulated gastric fluid, vehicle 1M Ascorbic Acid (sample 17)): 100 mg/mL (≈ 118 mM); solubility at 72 h ([6]; simulated gastric fluid, vehicle 1M Hydrochloric Acid (sample 15)): 100 mg/mL (≈ 118 mM); Concentration of clear solution by HPLC ([7]; 51.38 mg CEM-101 in 1 mL 60 mM tartaric acid pH 2.16, mixed overnight (5% initial formulation)): 50400 µg/mL; Concentration by HPLC after addition of 0.9% w/v NaCl ([7]; 5% NaCl formulation, clear on mixing for an hour): 53000 µg/mL; Concentration by HPLC after addition of 0.9% w/v NaCl ([7]; 8% NaCl formulation, white lump formed, mixed approx. 2 hours): 3900 µg/mL; solubility ([7]; aqueous buffer, thermodynamic from solid, approx. 90 mg CEM-101 in 1 mL 60 mM tartaric acid pH 2.16, mixed overnight (8% initial formulation), read-out: Saturated solubility by HPLC): 83 mg/mL (≈ 98.2 mM) |
| NCC(=O)O [Glycine] | remained white | Good solid cake- with uniform | Good solid cake- with uniform | Good solid cake- with uniform | Good solid cake- with uniform | Good solid cake- | No |  | MC-DSC Results (No Interaction/Interaction) ([10]; listed as glycine): compatible |
| OC[C@@H](O)[C@@H](O)[C@H](O)[C@H](O)CO [Mannitol] | remained white | Good solid cake- with uniform | Good solid cake- with uniform | Good solid cake- with uniform | Good solid cake- with uniform | Good solid cake- | No | 200 mg/mL | MC-DSC Results (No Interaction/Interaction) ([10]; listed as mannitol): compatible |
| CC[C@H]1OC(=O)[C@@](C)(F)C(=O)[C@H](C)[C@@H](O[C@@H]2O[C@H](C)C[C@H](N(C)C)[C@H]2O)[C@@](C)(OC)C[C@@H](C)C(=O)[C@H](C)[C@H]2N(CCCCn3cc(-c4cccc(N)c4)nn3)C(=O)O[C@]12C [Preformulation] |  |  |  |  |  |  |  |  | Total Impurities [12]: 2.34 % HPLC peak area |
| OC[C@H]1O[C@@](CO)(O[C@H]2O[C@H](CO)[C@@H](O)[C@H](O)[C@H]2O)[C@@H](O)[C@@H]1O [Sucrose] | Some cake yellowing | Good solid cake- with uniform | Good solid cake- with uniform | Good solid cake- with uniform | Good solid cake- with uniform |  | No |  | MC-DSC Results (No Interaction/Interaction) ([10]; listed as sucrose): compatible |
| OC[C@H]1O[C@H](O[C@H]2O[C@H](CO)[C@@H](O)[C@H](O)[C@H]2O)[C@H](O)[C@@H](O)[C@@H]1O [Trehalose] |  |  |  |  |  | Poor cake-puffing | Interaction | 700 mg/mL |  |
| Isomalt |  |  |  |  |  | Good solid cake- | Interaction | 600 mg/mL |  |
